Patent US10034462B2, “Animal model of nash-induced hepatocellular carcinoma and methods for developing specific therapeutics” (THE REGENTS OF THE UNIVERSITY OF CALIFORNIA, priority 2015, dated 2018)

Key:
[1] = tested on: primary hepatocytes from WT and MUP-uPA mice; experiment: PA-induced lipotoxic cell death in primary hepatocytes (Cell Counting Kit-8 cell viability); assay type: cell-based; details: for PA-induced cell death (cell viability): 300 μM PA for 24 hr with 500 μM TUDCA or 1 mM 4-PBA, WT and MUP-uPA hepatocytes
Experimental: (§1) Cell viability was assessed using Cell Counting Kit-8 assay. Data are means±S.D. of triplicate wells. *p<0.05. […] CHOP expression, SREBP1 maturation, and JNK phosphorylation were assessed by IB. FIGS. 4C-4D show the effect of GRP78 overexpression. MUP-uPA hepatocytes were infected with adenoviruses encoding LacZ or GRP78 and then incubated with PA. SREBP1 maturation (FIG. 4C) and cell viability (FIG. 4D) were assessed as above. […] Data are means±S.D. of triplicate wells. *p<0.05. FIGS. 4F-4I show the effect of TUDCA on NASH in HFD-fed MUP-uPA mice. 16 week old HFD-fed MUP-uPA mice were i.p. injected with TUDCA (250 mg/kg) or vehicle, and after 4 weeks of daily treatment, liver histology (scale bar=100 μm) (FIG. 4F), serum ALT (FIG. 4G), liver TG (FIG. 4H) and liver cholesterol (FIG. 4I) were evaluated. Bar graphs are means±S.D. (n=5 per group). *p<0.05. See also FIGS. 11A-11M.
To examine whether ER stress enhances lipotoxicity in MUP-uPA hepatocytes, we incubated WT and MUP-uPA hepatocytes with PA.

[2] = tested on: primary hepatocytes from WT and MUP-uPA mice; experiment: Immunoblot of CHOP expression, SREBP1 maturation and JNK phosphorylation in PA-treated primary hepatocytes; assay type: cell-based, mouse
Experimental: as §1, with “FIGS. 4A-4I are pictorial and graphical diagrams showing that chemical chaperons attenuate lipotoxicity and liver damage in MUP-uPA mice. […] Cell viability” for “Cell viability”
Primary hepatocytes were isolated (He et al., 2013) and cultured in William's E medium with 10% FBS on collagen-coated plates. PA (Sigma) was dissolved in ethanol at 50° C. and then diluted in bovine serum albumin-containing RPMI-1640 medium that was applied to primary hepatocytes at a final concentration of 200 (to analyze signal transduction) or 300 (to analyze cell death) μM.
Immunoblotting and real-time Q-PCR were described (Maeda et al., 2005). Antibodies used were against: phospho-ERK, ERK1/2, phospho STAT3, STAT3, phospho-JNK, JNK1/2, phospho-S6, S6, p65, cyclinD1, YAP (all from Cell Signaling); K19, GRP78, SREBP1, CHOP, CCL7, TNFR1 (all from Santa Cruz Biotechnology); phospho-eIF2α (Upstate); tubulin (Sigma); F4/80 (Molecular Probes); Ki67 (Gene Tex); AFP (Biocare Medical); TNF (R&D Systems); B220 (BD Pharmingen). TUDCA and 4-PBA were from Calbiochem and Sigma, respectively. GSH:GSSG ratio was analyzed using GSSG/GSH Quantification Kit (Dojindo).
To examine whether ER stress enhances lipotoxicity in MUP-uPA hepatocytes, we incubated WT and MUP-uPA hepatocytes with PA. […] PA increased CHOP expression and SREBP1 maturation in WT hepatocytes, but these effects were more pronounced in MUP-uPA hepatocytes, which expressed both proteins prior to PA addition (FIG. 4B). To examine the contribution of ER stress to these phenomena, we treated hepatocytes with the chemical chaperons 4-phenylbutyrate (4-PBA) and tauro-ursodeoxycholic acid (TUDCA), which reduce ER stress (Ozcan et al., 2006).

[3] = tested on: HFD-fed MUP-uPA mice; experiment: Effect of TUDCA on NASH in HFD-fed MUP-uPA mice; assay type: in vivo, mouse
Experimental: as §1, with “FIGS. 4A-4I are pictorial and graphical diagrams showing that chemical chaperons attenuate lipotoxicity and liver damage in MUP-uPA mice. […] Cell viability” for “Cell viability”
FIGS. 11A-11M are pictorial and graphical diagrams showing the effects of TUDCA and GRP78 overexpression and CHOP ablation on NASH and HCC development. FIGS. 11A and 11B show cell death and ROS accumulation in livers of TUDCA- or vehicle-treated HFD-fed MUP-uPA mice were examined by TUNEL (FIG. 11A) and DHE staining (FIG. 11B), respectively (scale bar=100 μm). […] CHOP protein expression in whole liver and mature SREBP1 in the nuclear fraction were examined by IB analysis. Shown are three individual livers per condition. FIGS. 11D and 11E show the effects of GRP78 overexpression. HFD-fed MUP-uPA mice were intravenously injected with 1×10^9 pfu of Ad-LacZ or Ad-GRP78. After 6 days the mice (n=6 per group) were sacrificed and hepatic steatosis was analyzed by H&E staining (scale bar=100 μm) (FIG. 11D) and GRP78 expression was determined by IB analysis (FIG. 11E). […] Data are means±S.D. (n=3 per group). […] FIGS. 11H-11K show the effect of hepatocyte CHOP ablation on tumor development and severity of NASH in HFD-fed MUP-uPA mice at 40 weeks of age. […] Results are means±S.E.M. (Chop^F/F/MUP-uPA, n=17; Chop^Δhep/MUP-uPA, n=11). *p<0.05. […] Data are means±S.D. (n=5-6 per group).
FIGS. 12A-12F are pictorial and graphical diagrams showing characteristics of Tnfr1^−/−/MUP-uPA mice. FIGS. 12A and 12B show the effect of 4 weeks TUDCA treatment on HFD-fed MUP-uPA mouse liver. IHC of F4/80 (scale bar=100 μm) (FIG. 12A) and TNF mRNA expression (FIG. 12B). Data are means±S.D. (n=5 per group). *p<0.05. […] Data are presented as means±S.D. (n=3 per group). […] Data are presented as means±S.D. (n=5 per group). […] Results are shown as means±S.D.
Hepatic lipids were extracted with chloroform/methanol (2:1 v/v), and TG and total cholesterol contents were measured with Triglyceride Reagent Set (Pointe Scientific) and Cholesterol E (Wako), respectively. FA composition was analyzed by gas-chromatography at SRL Inc., Tokyo, Japan.
Livers were fixed in 10% neutral-buffered formalin or 4% paraformaldehyde, embedded in paraffin, sectioned, and stained with hematoxylin and eosin (H&E), Sirius Red, and processed for IHC. For frozen block preparation, tissue was embedded in Tissue-Tek OCT compound (Sakura Finetek). IHC and IF analyses were described (He et al., 2013). Stained areas were quantitated with Image J software. Slides were incubated with primary antibodies, followed by secondary antibodies labeled with Alexa488 or Alexa594 (Molecular Probes). TUNEL staining was performed using an Apoalert DNA Fragmentation Assay kit (Clontech). Accumulation of superoxide anions was examined by DHE staining (Sakurai et al., 2008). Tissue sample preparation and EM analysis were described (Lee et al., 2012).
We examined the effect of TUDCA on NASH development. We initiated daily i.p. injections of TUDCA (250 mg/kg) or phosphate-buffered saline (PBS; vehicle control) to HFD-fed MUP-uPA mice at 16 weeks of age. […]

[4] = tested on: LFD or HFD-fed WT mice; experiment: Tunicamycin-induced ER stress and liver damage in LFD- or HFD-fed WT mice; assay type: in vivo, mouse
Description: FIGS. 10A-10J are pictorial and graphical diagrams showing that ER stress is sustained by HFD in MUP-uPA mice. […] Arrows indicate dilated ER (scale bar=1 μm). […] Representative images of livers and H&E (FIG. 10D) and TUNEL (FIG. 10E) staining of liver sections prepared 36 hrs later (scale bar=100 μm). […] Data are means±S.D. (n=3-4 per group). […] All bar graphs represent means±S.D. n=3 per group). *p<0.05.
Although the mechanism responsible for hepatocyte death in young MUP-uPA mice is not entirely clear, their hepatocytes are ER stressed (Sandgren et al., 1991). Indeed, several ER stress markers, including CHOP, GRP78, spliced XBP1 (sXBP1), phosphorylated (p) eIF2α, p-IRE1α and p-JNK, were elevated in 5 weeks old MUP-uPA mice compared with WT (FIGS. 3A and 10A). While most markers declined in 16 week old MUP-uPA mice, paralleling the decline in uPA expression, HFD-fed MUP-uPA mice maintained strong eIF2α and JNK phosphorylation and CHOP expression, (FIGS. 3B and 10A). In WT mice, HFD feeding induced only a slight elevation in p-eIF2α and CHOP mRNA with no effect on CHOP protein (FIG. 3B). Immunohistochemistry (IHC) confirmed nuclear CHOP in hepatocytes of 5 weeks old MUP-uPA mice, which was sustained at 16 weeks of age only in HFD-fed MUP-uPA mice (FIG. 3C). […] After 24 weeks of HFD, expression of the […] ligand TRAIL was also elevated in the MUP-uPA liver. […] Thus, whereas ER stress appears to be induced by uPA expression in 5 weeks old MUP-uPA mice, it declines due to transgene extinction. However, feeding these mice with HFD re-kindles the stress response and induces several cell death mediators that are not expressed in HFD-fed WT mice. To determine whether ER stress can cause ballooning degeneration and hepatocyte death, we injected HFD-fed WT mice with the protein glycosylation inhibitor and ER stress elicitor tunicamycin. This treatment led to rapid (36 hrs) induction of ballooning degeneration, hepatocyte apoptosis and ALT release only in HFD-fed mice (FIGS. 10D-10F).

[5] = 200 μM PA, WT hepatocytes, more pronounced in MUP-uPA hepatocytes
[6] = 250 mg/kg i.p. daily for 4 weeks from 16 weeks of age, vs PBS vehicle
[7] = 250 mg/kg i.p. daily for 4 weeks, vs vehicle
[8] = HFD-fed WT mice, 1.25 mg/kg i.p., 36 hrs, only in HFD-fed mice

O=C(O)CCCc1ccccc1 [4-PBA, 4-phenylbutyric acid]
PA-induced cell death (cell viability) [1]: attenuated PA-induced cell death | CHOP induction upon PA treatment ([2]; 200 μM PA with 1 mM 4-PBA, IB): reduced | JNK phosphorylation upon PA treatment ([2]; 200 μM PA with 1 mM 4-PBA, IB): only partially reduced | SREBP1 maturation upon PA treatment ([2]; 200 μM PA with 1 mM 4-PBA, IB): reduced

CCCCCCCCCCCCCCCC(=O)O [PA, palmitic acid]
lipotoxic cell death caused by PA ([1]; 300 μM PA, after 24 hrs, more extensive in MUP-uPA hepatocytes): lipotoxic cell death was seen in both WT and MUP-uPA hepatocytes | CHOP expression caused by PA [2, 5]: increased | SREBP1 maturation caused by PA [2, 5]: increased | JNK activation by PA ([2]; 200 μM PA, effect restricted to WT hepatocytes): activated

C[C@H](CCC(=O)NCCS(=O)(=O)O)[C@H]1CC[C@H]2[C@@H]3[C@@H](O)C[C@@H]4C[C@H](O)CC[C@]4(C)[C@H]3CC[C@]12C [TUDCA, tauroursodeoxycholic acid]
PA-induced cell death (cell viability) [1]: attenuated PA-induced cell death | hepatic TG [3, 6]: significantly reduced | hepatic cholesterol [3, 6]: significantly reduced | hepatocyte ballooning (liver histology) [3, 6]: attenuated | hepatosteatosis (liver histology) [3, 6]: attenuated | serum ALT [3, 6]: significantly reduced | SREBP1 maturation in liver (IB) ([3]; 250 mg/kg i.p. daily for 4 weeks, nuclear fraction): inhibited | ROS accumulation (DHE staining) [3, 7]: suppressed | hepatocyte death (TUNEL) [3, 7]: suppressed | CHOP expression in liver (IB) ([3]; 250 mg/kg i.p. daily for 4 weeks, whole liver): inhibited | TNF expression in liver (mRNA) ([3]; 4 weeks TUDCA treatment): inhibited | macrophage infiltration in liver (F4/80 IHC) ([3]; 4 weeks TUDCA treatment): inhibited

tunicamycin
liver steatosis (gross appearance of liver) ([4]; HFD-fed WT mice, 1.25 mg/kg i.p., 36 hrs): more steatotic | ALT release (serum ALT) [4, 8]: induction | ballooning degeneration [4, 8]: induction | hepatocyte apoptosis (TUNEL) [4, 8]: induction | liver damage by tunicamycin alone ([4]; short term, by itself (without HFD)): did not damage the liver
